Data published in patent US11590117B2, “Treatment of a hematologic malignancy with 2-(4-chlorophenyl)-n-((2-(2,6-dioxopiperidin-3-yl)-1-oxoisoindolin-5-yl)methyl)-2,2-difluoroacetamide” (priority 2016, dated 2023).
“And” between values parts separate entries of the source, which are not always exact repeats. Equal values may be shown once.

Legend:
SR = assay: CellTiter-Glo (CTG) cell proliferation assay, 72 hours; assay type: cell-based; conditions: Homo sapiens, Acute Lymphoblastic Leukemia
Method: (§1) Preparation of Solutions of Test Article: Compounds were plated into black 384-well plates (Corning Inc.) to a final DMSO volume of 0.1% assuming a maximal volume of 50 μL. A 10-point dose response starting at 10 μM with a 1:3 dilution was printed in duplicate by acoustic dispense using the EDC ATS-100 platform.
(§2) Cell Proliferation Assays: The effect of Compound 1 on the proliferation/viability of the hematological cell lines (Table 1 Table, Table 2 and Table 3), THLE-2, or PBMCs was assessed after 72 hours incubation using CTG (Promega), according to manufacturer's instructions. Hematological cell lines were dispensed into compound plates by a Multidrop™ Combi Reagent Dispenser (Thermo Scientific, Waltham, Mass.) at a concentration of 0.1 to 0.3×10^6 cells per mL in a 50 μL total volume. THLE-2 cells were seeded out at 1000 cells per well in 50 μL volume and incubated for 72 hours. At 72 hours, 25 μL per well of CTG was dispensed by a Multidrop™ Combi Reagent Dispenser and adenosine triphosphate (ATP) release by viable cells was measured as relative luminescence units after 30 minutes using the Envision platform.

BL-41 = assay: as above; assay type: cell-based; conditions: Homo sapiens, Burkitt Lymphoma
Method: as §1, §2

EB-1 = assay: as above; assay type: cell-based; conditions: Homo sapiens, EB1, Burkitt Lymphoma
Method: as §1, §2

Ramos = assay: as above; assay type: cell-based; conditions: Homo sapiens, Burkitt Lymphoma
Method: as §1, §2

HS-Sultan = assay: as above; assay type: cell-based; conditions: Homo sapiens, Burkitt Lymphoma
Method: as §1, §2

DG-75 = assay: as above; assay type: cell-based; conditions: Homo sapiens, Burkitt Lymphoma
Method: as §1, §2

RC-K8 = assay: as above; assay type: cell-based; conditions: Homo sapiens, RCK8, Diffuse Large B-cell Lymphoma (activated B-cell like)
Method: as §1, §2

BL-70 = assay: as above; assay type: cell-based; conditions: Homo sapiens, Burkitt Lymphoma
Method: as §1, §2

Raji = assay: as above; assay type: cell-based; conditions: Homo sapiens, Burkitt Lymphoma
Method: as §1, §2

OCI-LY-10 = assay: as above; assay type: cell-based; conditions: Homo sapiens, OCI-Ly10, Diffuse Large B-cell Lymphoma (activated B-cell like)
Method: as §1, §2

U2932 = assay: as above; assay type: cell-based; conditions: Homo sapiens, Diffuse Large B-cell Lymphoma (activated B-cell like)
Method: as §1, §2

MC-116 = assay: as above; assay type: cell-based; conditions: Homo sapiens, MC116, Acute Lymphoblastic Leukemia
Method: as §1, §2

Karpas 299 = assay: as above; assay type: cell-based; conditions: Homo sapiens, Anaplastic Large Cell Lymphoma
Method: as §1, §2

Blue-1 = assay: as above; assay type: cell-based; conditions: Homo sapiens, Burkitt Lymphoma
Method: as §1, §2

Daudi = assay: as above; assay type: cell-based; conditions: Homo sapiens, Burkitt Lymphoma
Method: as §1, §2

PBMCs = assay: Flow cytometry viable cell counting, 72 hours; assay type: cell-based; conditions: Homo sapiens, PBMC, PBMCs not pre-activated, read-out: cell count IC50
Method: (§3) The effects of Compound 1 in healthy PBMCs were also assessed. Compound 1 was added to PBMC s from one donor at time zero and assessed at 72 hours. This was compared to PBMCs that were pre-activated and proliferating on anti-CD3 antibody-coated plates for 72 hours before Compound 1 was added and the cells were incubated for an additional 72 hours. HNT-34 cells were used as a sensitive positive control cell line. Peripheral blood mononuclear cells that were pre-activated were resistant to the antiproliferative effects of Compound 1 (IC50>[…]) as determined by CTG and viable cell count. However, Compound 1 did reduce cell proliferation in PBMCs that were not pre-activated, as measured using two methods, CTG and flow cytometry cell counting (CTG IC50=0.1 μM; cell count IC50=0.5 μM). […] Similar or greater differences in Compound 1-induced elevation of caspase 3/7 and membrane depolarization were seen between pre-activated PBMCs and HNT-34 cells.

HNT-34 = assay: Flow cytometry viable cell counting, 72 hours; assay type: cell-based; conditions: Homo sapiens, HNT-34 as sensitive positive control cell line in PBMC comparison, read-out: cell count IC50
Method: as §3

[1] = tested on: CFU-GM (granulocyte/monocyte progenitors); assay: Colony forming assay, bone marrow CD34+ cells in MethoCult; assay type: cell-based, human
Method: Experimental design: human bone marrow (BM) CD34+ cells were used to evaluate the potential for BM toxicity induced by Compound 1. In order to test the effects of Compound 1 on the functionality of hematopoietic progenitors, colony forming assays were done by seeding BM CD34+ cells on MethoCult medium. Cells were seeded directly in MethoCult with Compound 1 or cultured in liquid medium with Compound 1 for 2, 4, or 8 hours and then seeded in compound-free MethoCult to evaluate the effect of different exposure times. Early apoptosis induced by Compound 1 on HSC was analyzed by flow cytometry.
Results. Colony forming units (CFU) of common granulocyte/erythrocyte/monocyte/megakaryocyte (CFU-GEMM), CFU of granulocyte/monocyte (CFU-GM), burst forming unit of erythrocytes (BFU-E), and CFU of erythrocytes (CFU-E) in cultures exposed to Compound 1 or DMSO were scored on STEMvision.
Bone marrow CD34+ cells from normal donors were incubated with Compound 1 in MethoCult medium. Colony numbers for CFU-GM and BFU-E progenitors were counted using STEMVision automatic colony counting instrument and software and normalized to the colony number of the DMSO control. Results plotted as percentage of DMSO control vs concentration of Compound 1 were used to determine IC50 values. Data are shown as mean standard error of the mean of n=3 technical replicates. Donors were HD10, HD14, HD18, and HD19.
FIGS. 33A and 33B provide, colony numbers after preincubation of bone marrow CD34+ cells with Compound 1 for 4 or 8 hours, respectively, in Iscove's medium, followed by incubation in MethoCult medium without Compound 1 for 14 days. FIG. 33C provides colony numbers after incubation of bone marrow CD34+ cells in MethoCult medium in continuous presence of Compound 1 for 14 days.

O=C1CCC(N2Cc3cc(CNC(=O)C(F)(F)c4ccc(Cl)cc4)ccc3C2=O)C(=O)N1 (centres unmarked) [Compound 1, 2-(4-chlorophenyl)-N-((2-(2,6-dioxopiperidin-3-yl)-1-oxoisoindolin-5-yl)methyl)-2,2-difluoroacetamide]
IC50 (SR): > 10000 nM
IC50 (BL-41): > 10000 nM
IC50 (EB-1): 66.3 nM
IC50 (Ramos): > 10000 nM
IC50 (HS-Sultan): > 10000 nM
IC50 (DG-75): > 10000 nM
IC50 (RC-K8): 956 nM
IC50 (BL-70): 347 nM
IC50 (Raji): > 10000 nM
IC50 (OCI-LY-10): > 10000 nM
IC50 (U2932): 904 nM
IC50 (MC-116): > 10000 nM
IC50 (Karpas 299): > 10000 nM
IC50 (Blue-1): 986 nM
IC50 (Daudi): 393 nM
IC50 (PBMCs): 500 nM
IC50 (HNT-34): 4 nM
Colony Number CFU-GM ([1]; Donor HD10, 7.4 nM Compound 1, replicate counts): 82 and 74
Colony Number CFU-GM ([1]; Donor HD10, 22.2 nM Compound 1, replicate counts): 71 and 80
Colony Number CFU-GM ([1]; Donor HD10, 67 nM Compound 1, replicate counts): 48 and 61
Colony Number CFU-GM ([1]; Donor HD10, 200 nM Compound 1, replicate counts): 2 and 0
Colony Number CFU-GM ([1]; Donor HD10, 600 nM Compound 1, replicate counts): 0
Colony Number CFU-GM ([1]; Donor HD14, 7.4 nM Compound 1, replicate counts): 15 and 12
Colony Number CFU-GM ([1]; Donor HD14, 22.2 nM Compound 1, replicate counts): 16 and 15
Colony Number CFU-GM ([1]; Donor HD14, 67 nM Compound 1, replicate counts): 6 and 4
Colony Number CFU-GM ([1]; Donor HD14, 200 nM Compound 1, replicate counts): 0
Colony Number CFU-GM ([1]; Donor HD14, 600 nM Compound 1, replicate counts): 0
Colony Number CFU-GM ([1]; Donor HD18, 7.4 nM Compound 1, replicate counts): 59 and 73
Colony Number CFU-GM ([1]; Donor HD18, 22.2 nM Compound 1, replicate counts): 55 and 62
Colony Number CFU-GM ([1]; Donor HD18, 67 nM Compound 1, replicate counts): 2 and 6
Colony Number CFU-GM ([1]; Donor HD18, 200 nM Compound 1, replicate counts): 0
Colony Number CFU-GM ([1]; Donor HD18, 600 nM Compound 1, replicate counts): 0
Colony Number CFU-GM ([1]; Donor HD19, 7.4 nM Compound 1, replicate counts): 44 and 70
Colony Number CFU-GM ([1]; Donor HD19, 22.2 nM Compound 1, replicate counts): 34 and 35
Colony Number CFU-GM ([1]; Donor HD19, 67 nM Compound 1, replicate counts): 4 and 5
Colony Number CFU-GM ([1]; Donor HD19, 200 nM Compound 1, replicate counts): 0
Colony Number CFU-GM ([1]; Donor HD19, 600 nM Compound 1, replicate counts): 0
IC50 ([1]; Homo sapiens, CFU-GM, CD34+ cells from four healthy donors, Compound 1 in MethoCult, read-out: IC50, inhibition of granulo-monocytic progenitors (CFU-GM)): 82 to 135 nM
